Measured values reported in ChEMBL document CHEMBL1201862, “PubChem BioAssay data set” (2004).
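Cells were grown in 96-well plates and exposed to each compound for 48 hours at five concentrations; endpoints were interpolated linearly between bracketing concentrations, or set to the highest concentration if not reached. Abbreviation: GI50, concentration required for 50% inhibition of growth.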 The source made the active and inactive calls. No stated cut-off is given here; in the data, active = GI50 up to about 1.1 µM and inactive = higher.

How the values were obtained:
Assay in all cases: DTP human tumour cell line panel, 48 h
[1] = tested on: SR
[2] = tested on: Hs-578T
[3] = tested on: MDA-N
[4] = tested on: OVCAR-3
[5] = tested on: IGROV-1
[6] = tested on: NCI-H522
[7] = tested on: CCRF-CEM
[8] = tested on: SF-539
[9] = tested on: COLO 205
[10] = tested on: SF-268
[11] = tested on: T47D
[12] = tested on: KM12
[13] = tested on: HOP-62
[14] = tested on: MCF7
[15] = tested on: DU-145
[16] = tested on: UACC-62
[17] = tested on: HT-29
[18] = tested on: MDA-MB-435
[19] = tested on: A549
[20] = tested on: HCC 2998

Row | Compound | GI50 [1] | GI50 [2] | GI50 [3] | GI50 [4] | GI50 [5] | GI50 [6] | GI50 [7] | GI50 [8] | GI50 [9] | GI50 [10] | GI50 [11] | GI50 [12] | GI50 [13] | GI50 [14] | GI50 [15] | GI50 [16] | GI50 [17] | GI50 [18] | GI50 [19] | GI50 [20]
1 | C[Si](C)(c1ccc(C(=O)O)cc1)c1ccc(C(=O)O)cc1 | > 100 µM (inactive) | > 100 µM (inactive) | > 100 µM (inactive) | > 100 µM (inactive) | > 100 µM (inactive) | > 100 µM (inactive) | > 100 µM (inactive) | > 100 µM (inactive) | > 100 µM (inactive) | > 100 µM (inactive) | > 100 µM (inactive) | > 100 µM (inactive) | > 100 µM (inactive) | > 100 µM (inactive) | > 100 µM (inactive) | > 100 µM (inactive) | > 100 µM (inactive) | > 100 µM (inactive) | > 100 µM (inactive) | 
2 | O=C(O)c1cccc2cccc(-c3cccc4cccc(C(=O)O)c34)c12 |  | > 100 µM (inactive) | > 100 µM (inactive) | > 100 µM (inactive) | > 100 µM (inactive) | > 100 µM (inactive) | > 100 µM (inactive) | > 100 µM (inactive) | > 100 µM (inactive) | > 100 µM (inactive) | > 100 µM (inactive) | > 100 µM (inactive) | > 100 µM (inactive) | > 100 µM (inactive) | > 100 µM (inactive) | > 100 µM (inactive) | > 100 µM (inactive) | > 100 µM (inactive) | > 100 µM (inactive) | > 100 µM (inactive)
3 | C[C@]12CCC(=O)C=C1C[C@@H](O)[C@@H]1[C@@H]2CC[C@@]2(C)[C@H]1CC[C@]2(C)O | > 100 µM (inactive) | > 100 µM (inactive) | > 100 µM (inactive) | > 100 µM (inactive) | > 100 µM (inactive) | > 100 µM (inactive) | > 100 µM (inactive) |  | > 100 µM (inactive) | > 100 µM (inactive) | > 100 µM (inactive) | > 100 µM (inactive) | > 100 µM (inactive) | > 100 µM (inactive) | > 100 µM (inactive) | > 100 µM (inactive) | > 100 µM (inactive) | > 100 µM (inactive) | > 100 µM (inactive) | > 100 µM (inactive)
4 | COc1ccc([C@]23CCN4COC[C@@H]([C@H]42)C2(CC3)OCC(C)(C)CO2)cc1OC | > 100 µM (inactive) | > 100 µM (inactive) | > 100 µM (inactive) |  | > 100 µM (inactive) | > 100 µM (inactive) | > 100 µM (inactive) |  | > 100 µM (inactive) | > 100 µM (inactive) | 66.5 µM (inactive) | > 100 µM (inactive) | > 100 µM (inactive) | > 100 µM (inactive) | > 100 µM (inactive) | > 100 µM (inactive) | 89.7 µM (inactive) | > 100 µM (inactive) | > 100 µM (inactive) | > 100 µM (inactive)
5 | O=C1/C(=N\n2c(S)nnc2-c2ccncc2)c2cc(Cl)ccc2N1CN1CCCCC1 |  | 19.8 µM (inactive) | 31.5 µM (inactive) | 73.8 µM (inactive) | 16.1 µM (inactive) | 13.7 µM (inactive) | 6.97 µM (inactive) | 35 µM (inactive) | 41 µM (inactive) | 53.5 µM (inactive) | 23.1 µM (inactive) | 38.3 µM (inactive) | 30.3 µM (inactive) | 31.2 µM (inactive) | 29.6 µM (inactive) | 34.4 µM (inactive) | 31.2 µM (inactive) | 32.2 µM (inactive) | 53.2 µM (inactive) | 
6 | CSc1nc2ccccc2c(=O)n1/N=C1\C(=O)N(CN2CCCCC2)c2ccc(Cl)cc21 |  | 37.7 µM (inactive) | 21.8 µM (inactive) | 59.3 µM (inactive) | 13.5 µM (inactive) | 12.2 µM (inactive) | 20.6 µM (inactive) | 37.6 µM (inactive) | 17.9 µM (inactive) | 20.1 µM (inactive) | 13.3 µM (inactive) | 25.1 µM (inactive) | 33.3 µM (inactive) | 18.7 µM (inactive) | 17.3 µM (inactive) | 8.89 µM (inactive) | 36.7 µM (inactive) | 26.6 µM (inactive) | 37.2 µM (inactive) | 
7 | CC12c3c4ccc(C=O)c3Oc3ccc(C=O)c(c31)Oc1ccc(C=O)c(c12)O4 | 7.11 µM (inactive) | > 25 µM (inactive) | > 25 µM (inactive) | > 25 µM (inactive) | > 25 µM (inactive) | > 25 µM (inactive) | 17.5 µM (inactive) | > 25 µM (inactive) | > 25 µM (inactive) | > 25 µM (inactive) | > 25 µM (inactive) | > 25 µM (inactive) | > 25 µM (inactive) | > 25 µM (inactive) | > 25 µM (inactive) | > 25 µM (inactive) | > 25 µM (inactive) | > 25 µM (inactive) | > 25 µM (inactive) | 
8 | N#CCCN(CCC#N)c1ccc(/C=C2\N=C(c3ccccc3)N(c3ccc(C(=O)O)cc3)C2=O)cc1 |  | 22.3 µM (inactive) | > 100 µM (inactive) | 40.1 µM (inactive) | 20.3 µM (inactive) |  |  | 24.4 µM (inactive) | 39 µM (inactive) | 21.1 µM (inactive) | 40.7 µM (inactive) | 17.2 µM (inactive) | > 100 µM (inactive) | 37.6 µM (inactive) | 69.2 µM (inactive) | 23.8 µM (inactive) | 95.1 µM (inactive) | 31.8 µM (inactive) | > 100 µM (inactive) | 
9 | CN1C2CCC1CC(CCOC(c1ccc(F)cc1)c1ccc(F)cc1)C2 (centres undefined) | 14.8 µM (inactive) | 17.8 µM (inactive) | 14.5 µM (inactive) | 16 µM (inactive) | 17.3 µM (inactive) | 17.1 µM (inactive) | 18.4 µM (inactive) | 15.9 µM (inactive) | 11.7 µM (inactive) | 15.8 µM (inactive) | 18.5 µM (inactive) | 14.8 µM (inactive) | 16 µM (inactive) |  | 15.7 µM (inactive) |  | 6.73 µM (inactive) | 12.4 µM (inactive) | 19.4 µM (inactive) | 
10 | c1ccc2c(c1)nc1n2CCSC1 | > 100 µM (inactive) | > 100 µM (inactive) | > 100 µM (inactive) | > 100 µM (inactive) | 74.8 µM (inactive) |  | > 100 µM (inactive) | > 100 µM (inactive) | > 100 µM (inactive) | > 100 µM (inactive) | > 100 µM (inactive) | > 100 µM (inactive) | > 100 µM (inactive) | > 100 µM (inactive) | > 100 µM (inactive) | > 100 µM (inactive) | > 100 µM (inactive) | > 100 µM (inactive) | > 100 µM (inactive) | > 100 µM (inactive)
11 | COc1ccc2[nH]c3c(c2c1)CC(=O)N1CCCC(CC3O)C1 (centres undefined) |  | > 100 µM (inactive) | > 100 µM (inactive) |  | > 100 µM (inactive) | > 100 µM (inactive) |  | > 100 µM (inactive) | > 100 µM (inactive) | > 100 µM (inactive) | > 100 µM (inactive) | > 100 µM (inactive) |  | > 100 µM (inactive) | > 100 µM (inactive) | > 100 µM (inactive) | > 100 µM (inactive) | > 100 µM (inactive) | > 100 µM (inactive) | > 100 µM (inactive)
12 | Cc1ccc(C(=O)Nc2ccc(CP(=O)(O)O)cc2CP(=O)(O)O)cc1NC(=O)c1cccc(NC(=O)Nc2cccc(C(=O)Nc3cc(C(=O)Nc4ccc(CP(=O)(O)O)cc4CP(=O)(O)O)ccc3C)c2)c1 |  | > 100 µM (inactive) | > 100 µM (inactive) | > 100 µM (inactive) | > 100 µM (inactive) | > 100 µM (inactive) | > 100 µM (inactive) | > 100 µM (inactive) | > 100 µM (inactive) | > 100 µM (inactive) | > 100 µM (inactive) | > 100 µM (inactive) | > 100 µM (inactive) | > 100 µM (inactive) | > 100 µM (inactive) | > 100 µM (inactive) | > 100 µM (inactive) | > 100 µM (inactive) | > 100 µM (inactive) | > 100 µM (inactive)
13 | C[C@@H]1C(=O)O[C@@H]2C[C@@]1(C)[C@@H]1C(=O)C3(O)OC14C2(C)OC(=O)[C@@]4(O)CCC1C3C(O)C=C2CC=CC(=O)[C@@]21C (some centres undefined) | 18.2 µM (inactive) | 20.9 µM (inactive) | 28.9 µM (inactive) |  | 42.3 µM (inactive) |  | 13.6 µM (inactive) | 25.3 µM (inactive) | 34 µM (inactive) | 26.7 µM (inactive) | 31.3 µM (inactive) | 26.6 µM (inactive) | 63.5 µM (inactive) | 36.3 µM (inactive) | 30.3 µM (inactive) | 22 µM (inactive) | 34 µM (inactive) | 20.4 µM (inactive) | 40.8 µM (inactive) | 39.1 µM (inactive)
14 | C[C@H]1O[C@@H](O[C@H]2[C@@H](O)C[C@H](O[C@H]3[C@@H](O)C[C@H](O[C@H]4CC[C@@]5(C)[C@H](CC[C@@H]6[C@@H]5CC[C@]5(C)[C@@H](C7=CC(=O)OC7)[C@@H](O)C[C@]65O)C4)O[C@@H]3C)O[C@@H]2C)C[C@H](O)[C@@H]1O [GITOXIN] | 0.287 µM (active) | 0.562 µM (active) | 0.266 µM (active) | 0.13 µM (active) | 0.416 µM (active) | 0.0238 µM (active) | 0.109 µM (active) | 0.1 µM (active) | 0.798 µM (active) | 0.152 µM (active) | 0.42 µM (active) | 0.658 µM (active) | 0.566 µM (active) |  | 0.0822 µM (active) | 0.418 µM (active) | 0.177 µM (active) | 0.365 µM (active) | 0.0719 µM (active) | 4.19 µM (inactive)
